{"source": "patent US20240208984A1", "about": "“BIVALENT LIGANDS TO UNDERSTAND DIMERIZATION OF THE MU OPIOID RECEPTOR AND THE CHEMOKINE RECEPTOR CCR5 IN NEUROLOGICAL DISORDERS” (priority 2021, published 2024)", "molecules": {"B1": {"name": "MIP-1β: macrophage inflammatory protein 1 beta, used as a control (protein, UniProt P13236 24-92, looked up)", "C-C motif chemokine 4": "APMGSDPPTACCFSYTARKLPRNFVVDYYETSSLCSQPAVVFQTKRSKQVCADPSESWVQEYVYDLELN"}}, "key": {"mouse MOR [1]": {"biological_target": "T1, mouse MOR (Mus musculus (Mouse), UniProt P42866)", "T1 sequence (P42866 whole entry, looked up)": "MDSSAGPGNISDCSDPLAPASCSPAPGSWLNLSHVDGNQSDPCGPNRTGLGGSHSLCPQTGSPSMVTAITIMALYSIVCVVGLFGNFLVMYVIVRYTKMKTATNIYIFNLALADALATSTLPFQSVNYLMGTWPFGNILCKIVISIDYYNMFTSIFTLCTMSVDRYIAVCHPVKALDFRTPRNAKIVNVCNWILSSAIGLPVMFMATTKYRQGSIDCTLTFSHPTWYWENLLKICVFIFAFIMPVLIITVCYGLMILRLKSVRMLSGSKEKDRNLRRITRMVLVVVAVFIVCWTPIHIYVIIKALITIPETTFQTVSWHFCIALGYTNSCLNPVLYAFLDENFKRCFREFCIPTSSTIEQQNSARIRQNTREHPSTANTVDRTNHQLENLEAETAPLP", "assay": "[35S]GTPγS functional assay in mMOR-CHO", "assay_type": "biochemical", "conditions": "[35S]GTPγS binding, mean ± SEM", "protocol": "After incubation, the bound radioactive ligand was separated from the free radioligand by filtration through a GF/B glass fiber filter paper and rinsed three times with ice-cold wash buffer (50 mM Tris-HCl, pH 7.2) using the Brandel harvester."}, "CCR5 [2]": {"biological_target": "T2, CCR5 (Homo sapiens (Human), UniProt P51681)", "T2 sequence (P51681 whole entry)": "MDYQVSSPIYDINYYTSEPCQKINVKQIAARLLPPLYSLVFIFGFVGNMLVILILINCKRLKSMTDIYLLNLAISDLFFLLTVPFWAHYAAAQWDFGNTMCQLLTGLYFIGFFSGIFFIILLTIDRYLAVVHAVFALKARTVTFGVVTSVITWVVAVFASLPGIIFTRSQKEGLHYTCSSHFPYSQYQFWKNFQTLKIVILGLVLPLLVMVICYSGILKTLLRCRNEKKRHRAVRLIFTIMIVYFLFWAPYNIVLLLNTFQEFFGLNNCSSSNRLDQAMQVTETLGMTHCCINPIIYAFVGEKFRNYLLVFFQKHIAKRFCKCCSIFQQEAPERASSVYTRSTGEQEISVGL", "assay": "Calcium mobilization assay in HOS-CCR5 cells", "assay_type": "cell-based", "protocol": "We then conducted the calcium mobilization assay to further test both the agonist and antagonist properties of the newly synthesized compounds in the HOS-CCR5 (stably transfected for the expression of CCR5) cells using our reported protocol, as calcium mobilization is associated with the activation of CCR5. Prior to the assay, the HOS-CCR5 cells were transiently transfected with a Gqi5 to boost calcium signaling levels.\nIn the antagonism assay, these compounds were assessed for their ability to inhibit CCL5-stimulated Ca^2+ mobilization.\nHOS-CCR5 cells were transfected with Gqi5 pcDNA16 using Lipofectamine 2000 (Invitrogen) according to the manufacturer's recommended procedure and maintained in RPMI 1640 supplemented with 10% fetal bovine serum, 100 μg/mL penicillin, 100 μg/mL streptomycin, and 1 mg/mL G418 at 37° C. and 5% C02. 48 h after transfection, a total of 2,500,000 cells were spun down and brought back up in 8 mL of 50:1 HBSS: HEPES assay buffer. Cells were then plated at 25,000 cells per well into a clear bottom, black 96-well plate (Greiner Bio-one) and 50 μL of Fluo4 loading buffer [40 μL of 2 μM Fluo4-AM (Invitrogen), 100 μL of 2.5 mM probenecid, in 5 mL of assay buffer] was added to bring the volume up to 130 μL. After incubating for 45 min, 50 μL of varying concentrations of tested compounds were added and the plate was incubated for an additional 15 min. Plates were then read on a FlexStation3 microplate reader (Molecular Devices) at 494/516 ex/em for a total of 120 s. After 16 s of reading, 20 μL of 200 nM CCL5 (Biosource) in assay buffer, or assay buffer alone, was added to the wells to bring the total volume up to 200 μL. The changes in calcium mobilization were monitored and peak height values were obtained using SoftMaxPro software (Molecular Devices). Non-linear regression curves and IC50 values were generated using GraphPad Prism 8.0.1 (GraphPad Software, San Diego, CA). All experiments were repeated at least three times."}, "mouse mu opioid receptor [3]": {"biological_target": "T3, mouse mu opioid receptor (Mus musculus (Mouse), UniProt P42866)", "T3 sequence (P42866 whole entry, looked up)": "as the sequence (P42866 whole entry, looked up) above", "assay": "Calcium mobilization assay in mMOR-CHO cells", "assay_type": "cell-based", "protocol": "Calcium mobilization assay results in mMOR-CHO cells. The pharmacological profiles of the three newly prepared MOR bivalent ligands were further characterized for their effects on MOR-dependent intracellular Ca^2+ signaling in an mMOR-CHO cell line that was transfected with chimeric Gqi5 protein as previously described.\nA CHO cell line stably expressing the mouse mu opioid receptor (mMOR-CHO) was used for this assay. The cells were transfected with Gαqi5 for 4 h and then plated (10,000 cells/well) to black 96-well plates with clear bottoms (Greiner Bio-One). After 24 h of incubation, the culture medium was removed, and the cells were washed with assay buffer (50 mL of HBSS, 1 mL of HEPES, 250 μL of probenecid, 50 μL of 1 mM CaCl2, and 50 μL of 1 mM MgCl2). The tested compounds were dissolved in DMSO as a stock solution for the assay (1 M). For agonist assays, cells were then incubated with 50 μL/well loading buffer (6 mL of assay buffer, 24 μL of Fluo4-AM solution (Invitrogen), and 12 μL of probenecid solution) for 60 min. Following incubation, different concentrations of the tested compounds were added by a FlexStation3 microplate reader (Molecular Devices) and read at ex494/em516. Each concentration was run in triplicate. For antagonism studies, the cells were incubated with the same loading buffer as the agonist assay for 60 min. Then, different concentrations of the tested compounds (20 μL/well) were manually added to each well followed by another 15 min of incubation. […] Each concentration was run in triplicate. The corresponding IC50 value of each compound was calculated by non-linear regression using GraphPad Prism 8.0.1 (GraphPad Software, San Diego, CA)."}, "[4]": {"biological_target": "T4, Rhesus macaque chemokine CCR5 receptors (Macaca mulatta (Rhesus macaque), UniProt P61813)", "assay": "In vitro CCR5 radioligand binding assay", "conditions": "[125I]MIP-1α radioligand; Chem-1 cells; Cheng-Prusoff; mean ± SEM; read-out: CCR5 Radioligand Binding Affinity Ki", "protocol": "In vitro CCR5 radioligand binding studies. To verify the binding affinity of the bivalent ligands to the CCR5, the competitive radioligand binding assay was conducted in recombinant rhesus macaque CCR5-expressing Chem-1 cells, and macrophage inflammatory protein 1 beta (MIP-1β) was used as a control.\nThe CCR5 competitive radioligand binding assay was conducted following previously reported studies.74, 75 Rhesus macaque chemokine CCR5 receptors expressed in Chem-1 cells are assayed in modified HEPES buffer (50 mM HEPES, 1 mM CaCl2, 5 mM MgCl2, 0.2% BSA, pH 7.4). 3 μg of membrane protein was incubated with 0.10 nM [^125I]MIP-1α in the presence of six concentrations of tested compounds (10 μM, 1 μM, 0.1 μM, 10 nM, 1 nM, and 0.1 nM) for 90 min at 25° C. Non-specific binding is estimated in the presence of 0.1 μM MIP-1β."}, "mouse MOR [5]": {"biological_target": "T1, mouse MOR", "assay": "In vitro MOR radioligand binding assay", "conditions": "[3H]naloxone radioligand; mMOR-CHO; mean ± SEM; read-out: MOR Radioligand Binding Affinity Ki", "description": "In vitro MOR radioligand binding studies. All bivalent ligands were first tested for their binding affinity to the MOR. The competitive radioligand binding assay was conducted using monoclonal mouse MOR expressed in CHO cell lines (mMOR-CHO).\nIn vitro MOR radioligand binding assay The competition binding assay was conducted using monoclonal mouse MOR expressed in Chinese hamster ovary (CHO) cell lines. In this assay, 30 μg of membrane protein was incubated with the radioligand [^3H] naloxone in the presence of different concentrations of tested compounds in TME buffer (50 mM Tris, 3 mM MgCl2, and 0.2 mM EGTA, pH 7.4) for 1.5 h at 30° C. The bound radioligand was separated by filtration using a Brandel harvester. […] The IC50 values were determined and converted to Ki values using the Cheng-Prusoff equation: Ki=IC50/[1+([L*]/KD)], where [L*] is the concentration of the radioligand and KD is the KD of the radioligand was determined.73"}, "[6]": {"test_system": "HIV-1BaL Env-pseudotyped Luc-expressing virus", "assay": "HIV-1 infection assay in PHA-stimulated PBMC cells", "assay_type": "cell-based", "conditions": "PHA-stimulated PBMCs; 10 nM", "protocol": "Peripheral blood mononuclear cells (PBMCs) include large numbers of CCR5-expressing leukocytes and are susceptible to infection by R5-tropic HIV-1 strains.\nIn a 24-well plate, PHA-stimulated PBMC cells from healthy donors were infected by incubation with the HIV-1BaL.01 env-pseudotyped Luc virus. A concentration of HIV-1 p24 50 pg/106 cells was used, and uninfected cells served as a negative control. […] After approximately 18-20 h, the supernatant was removed and stored at −80° C., cells were rinsed twice with PBS and lysed. The lysate was subsequently tested for the relative Tat protein expression by using a luciferase assay system (Promega). Luciferase activity was measured using a PHERASTAR® FS plate reader (BMG Labtech)."}, "HIV-1BaL": {"test_system": "HIV-1BaL", "assay": "Anti-HIV-1BaL activity (reverse transcriptase activity) in GHOST CCR5 cells", "conditions": "for EC50: read-out: Inhibition of HIV-1BaL EC50, RT activity, triplicate", "description": "This assay was run in GHOST-CCR5 cells using the CCR5-tropic viral strain HIV-1BaL.\n(§1) 100 μL of GHOST CCR5 cells at a density of 1×10^4 cells/well in 10% complete DMEM (10% FBS with 1% L-glutamine and 1% Penicillin/Streptomycin) media were plated in a 96-well flat bottom plate and incubated for 24 h at 37° C./5% CO2. Following the incubation, 100 μL of each compound at 6 concentrations were added in triplicate to both efficacy and toxicity plates followed by 100 μL of HIV-1BaL at a pre-determined titer to the plates being evaluated for efficacy and 50 μL of complete DMEM to the plates being evaluated for cytotoxicity. The cultures were incubated for 6 days at 37° C./5% CO2. Following the incubation, 50 μL of cell culture supernatant was removed from the wells of the efficacy plates for subsequent evaluation of virus content by reverse transcriptase activity assay. The toxicity plates being evaluated for cytotoxicity were stained with XTT.\nRT activity (EC50 values) was measured using standard radioactivity incorporation polymerization assay. 1 μL of titrated thymidine triphosphate (TTP) at 1 Ci/mL was used per enzyme reaction. Poly rA and oligo dT were prepared at concentrations of 0.5 mg/mL and 1.7 Units/mL, respectively, from a stock solution which was kept at −20° C. The RT reaction buffer was prepared fresh and consists of 125 μL of 1M EGTA, 125 μL of dH2O, 125 μL of 20% Triton X-100, 50 μL of 1M Tris (pH 7.4), 50 μL of 1M DTT, and 40 μL of 1 M MgCl2. For each reaction, 1 μL of TTP, 4 μL of dH2O, 2.5 μL of rAdT and 2.5 μL of reaction buffer were mixed. 10 μL of this reaction mixture was placed in a round bottom microtiter plate with 15 μL of virus containing supernatant. The plate was incubated at 37° C. in a humidified incubator for 60-90 min. […] The dried filtermat was placed in a plastic sleeve and 4 mL of Opti-Fluor O (Perkin Elmer, catalog #1205-440) scintillation fluid was added to each sleeve. […] TC50 values for the tested compounds were derived by measuring the reduction of the tetrazolium dye XTT (2,3-bis(2-methoxy-4-nitro-5-sulfophenyl)-5-[(phenylamino)carbonyl]-2H-tetrazolium hydroxide). XTT in metabolically active cells is metabolized by the mitochondrial enzyme NADPH oxidase to a soluble formazan product. XTT solution was prepared as a stock of 1 mg/mL in RPMI-1640 without additives. Phenazine methosulfate (PMS) solution was prepared at 0.15 mg/mL in DPBS and stored in the dark at −20° C. XTT/PMS stock was prepared immediately before use by adding 40 μL of PMS per mL of XTT solution. […] The plates were sealed and inverted several times to mix the soluble formazan product and the plate was read at 450 nm (650 nm reference wavelength) with a Molecular Devices SPECTRAMAX® Plus 384 96 well format spectrophotometer."}, "GHOST CCR5 cells": {"test_system": "GHOST CCR5 cells", "conditions": "GHOST CCR5 cells; XTT; triplicate", "description": "These compounds were concurrently assessed for cytotoxicity in GHOST-CCR5-expressing cells using the XTT assay. […] The therapeutic index (TI, TC50/EC50) values were calculated if applicable.\nas §1\nTC50 values for the tested compounds were derived by measuring the reduction of the tetrazolium dye XTT (2,3-bis(2-methoxy-4-nitro-5-sulfophenyl)-5-[(phenylamino)carbonyl]-2H-tetrazolium hydroxide). XTT in metabolically active cells is metabolized by the mitochondrial enzyme NADPH oxidase to a soluble formazan product. XTT solution was prepared as a stock of 1 mg/mL in RPMI-1640 without additives. Phenazine methosulfate (PMS) solution was prepared at 0.15 mg/mL in DPBS and stored in the dark at −20° C. XTT/PMS stock was prepared immediately before use by adding 40 μL of PMS per mL of XTT solution. 50 μL of XTT/PMS was added to each well of the plate and the plate was incubated for 4 h at 37° C. The plates were sealed and inverted several times to mix the soluble formazan product and the plate was read at 450 nm (650 nm reference wavelength) with a Molecular Devices SPECTRAMAX® Plus 384 96 well format spectrophotometer."}, "mouse mu opioid receptor [7]": {"biological_target": "T3, mouse mu opioid receptor", "conditions": "read-out: Inhibition of DAMGO Induced Ca2+ Mobilization IC50; data reported before, shown for comparison; cited from earlier work"}, "mouse MOR [8]": {"biological_target": "T1, mouse MOR", "conditions": "[35S]GTPγS binding; data reported before, shown for comparison; cited from earlier work"}, "[9]": {"biological_target": "T4, Rhesus macaque chemokine CCR5 receptors", "conditions": "data reported before; similar assay with minor differences; read-out: CCR5 Radioligand Binding Affinity Ki; cited from earlier work"}, "CCR5 [10]": {"biological_target": "T2, CCR5", "conditions": "data reported before, shown for comparison; read-out: Inhibition of CCL5-stimulated Intracellular Ca2+ Mobilization IC50; cited from earlier work"}}, "note": "Where two headings read alike, the source gives them in different places. Marks after values point to notes of the source that are not given here."}
{"molecule": "CC(C)c1nnc(CCNC(=O)COCC(=O)NCCCCCCCCCNC(=O)COCC(=O)NC2CC[C@@]3(O)[C@H]4Cc5ccc(O)c6c5[C@@]3(CCN4CC3CC3)[C@H]2O6)n1C1CC2CCC(C1)N2CC[C@H](NC(=O)C1CCC(F)(F)CC1)c1ccccc1", "note": "(stereo partly drawn) [VZMC017]", "values": [{"measurement": "% Emax of DAMGO", "setting": "mouse MOR [1]", "result": "4.27 ± 0.66^a %"}, {"measurement": "IC50", "setting": "CCR5 [2]", "result": "965 ± 30.5", "unit": "nM"}, {"measurement": "IC50", "setting": "mouse mu opioid receptor [3]", "result": 74.4, "unit": "nM"}, {"measurement": "Ki", "setting": "[4]", "result": "5.7 ± 0.23", "unit": "nM"}, {"measurement": "Ki", "setting": "mouse MOR [5]", "result": 11.2, "unit": "nM"}]}
{"molecule": "C[C@@H](NC(=O)[C@@H](N)Cc1ccc(O)cc1)C(=O)NCC(=O)N(C)[C@@H](Cc1ccccc1)C(=O)NCCO", "note": "[DAMGO, [D-Ala2-MePhe4-Gly(ol)5]enkephalin, reference compound]", "values": [{"measurement": "effect of opioid exposure on HIV expression", "setting": "[6]", "result": "remarkable increases in HIV expression"}]}
{"molecule": "Cc1nnc(C(C)C)n1C1C[C@H]2CC[C@@H](C1)N2CC[C@H](NC(=O)C1CCC(F)(F)CC1)c1ccccc1", "note": "(stereo in doubt) [Maraviroc]", "values": [{"measurement": "TI (TC50/EC50)", "setting": "HIV-1BaL", "result": ">28"}, {"measurement": "EC50", "setting": "HIV-1BaL", "result": "18 ± 2", "unit": "nM"}, {"measurement": "Cytotoxicity TC50", "setting": "GHOST CCR5 cells", "result": ">500", "unit": "nM"}]}
{"molecule": "CNC(=O)COCC(=O)NCCCNC(=O)COCC(=O)N[C@@H]1CC[C@@]2(O)[C@H]3Cc4ccc(O)c5c4[C@@]2(CCN3CC2CC2)[C@H]1O5", "note": "[VZMC002]", "values": [{"measurement": "Cytotoxicity TC50", "setting": "GHOST CCR5 cells", "result": ">100000", "unit": "nM"}]}
{"molecule": "Cc1nnc(C(C)C)n1C1CC2CCC(C1)N2CC[C@H](NC(=O)C1CCC(F)(F)CC1)c1ccc(NC(=O)COCC(=O)NCCCCCCCNC(=O)COCC(=O)N[C@@H]2CC[C@@]3(O)[C@H]4Cc5ccc(O)c6c5[C@@]3(CCN4CC3CC3)[C@H]2O6)cc1", "note": "(stereo partly drawn) [VZMC001]", "values": [{"measurement": "EC50", "setting": "HIV-1BaL", "result": "> 100000", "unit": "nM"}, {"measurement": "Cytotoxicity TC50", "setting": "GHOST CCR5 cells", "result": ">100000", "unit": "nM"}, {"measurement": "IC50", "setting": "mouse mu opioid receptor [7]", "result": 40, "unit": "nM"}, {"measurement": "% Emax of DAMGO", "setting": "mouse MOR [8]", "result": "11.7 ± 1.2^b %"}, {"measurement": "Ki", "setting": "[9]", "result": "239 ± 56", "unit": "nM"}, {"measurement": "IC50", "setting": "CCR5 [10]", "result": 126, "unit": "nM"}]}
{"molecule": "CCL5: C—C motif chemokine ligand 5, control CCR5 agonist", "values": [{"measurement": "EC50", "setting": "CCR5 [2]; agonist mode, HOS-CCR5 transfected with Gqi5, read-out: CCR5 Ca2+ mobilization agonism EC50", "result": "155 ± 6.58", "unit": "nM"}]}
{"molecule": "B1", "values": [{"measurement": "Ki", "setting": "[4]", "result": "0.056 ± 0.006", "unit": "nM"}]}
